Experimental findings from patent US11136295B2, “D-amphetamine compounds, compositions, and processes for making and using the same” (KemPharm, Inc., priority 2018, dated 2021) are described below.

Series [1] can be described thus: Intravenous pharmacokinetic study in rats (tail vein; plasma d-amphetamine by LC-MS/MS). Format: in vivo, rat. The following applies: for AUC0-2 hr / Cmax / Tmax: d-amphetamine in plasma, rat, intravenous (tail vein), 5.6 μmol/kg, sampled to 2 hours. The procedure:
Conjugates of d-amphetamine, and d-amphetamine sulfate or lisdexamfetamine dimesylate comparator compound were dissolved in an appropriate vehicle and administered in rats at doses of 5.6 μmol/kg by injecting the solution into the tail vein. Whole blood samples were collected via retro-orbital bleeding at 5 minutes and at 0.25, 0.5, 1 and 2 hours postdose. Blood samples were centrifuged and the resulting plasma samples were collected for analysis of […] concentrations by LC-MS/MS.

Series [2] can be described thus: Oral pharmacokinetic study in rats (plasma amphetamine by LC-MS/MS). It is filed as in vivo. To be noted: d-amphetamine in plasma; rat, oral gavage, 5.6 μmol/kg; 6-hour time course. The procedure:
Conjugates of d-amphetamine, and d-amphetamine sulfate or lisdexamfetamine dimesylate comparator compound were dissolved in an appropriate vehicle and administered in rats via oral gavage at doses of 5.6 μmol/kg. Whole blood samples were collected via retro-orbital bleeding at 0.25, 0.5, 1, 2, 4, and optionally at 3 and 6 hours postdose. Blood samples were centrifuged and the resulting plasma samples were collected for analysis of amphetamine concentrations by LC-MS/MS.

Series [3] in a line: Intranasal pharmacokinetic study in rats (plasma amphetamine by LC-MS/MS). It is filed as in vivo. To be noted: d-amphetamine in plasma, rat, 4-hour time course.

As for `C[C@@H](Cc1ccccc1)NC(=O)OC[n+]1ccc(C(=O)O)cc1` [AMP-CO2CH2-isonicotinate, d-amphetamine-CO2CH2-isonicotinate], the melting point (commonly the temperature, or range, at which the solid turns liquid) is 168 to 170 °C.

`CCOC(=O)C(C)NC(=O)c1cc[n+](COC(=O)N[C@@H](C)Cc2ccccc2)cc1` (stereo partly drawn) [AMP-CO2CH2-isonicotinoyl-Ala-OEt, d-amphetamine-CO2CH2-isonicotinoyl-alanine ethyl ester]: in series [1], the AUC0-2 hr is 32.4 ng·h/mL; the Cmax (in general, the maximum level reached in the sampled fluid or tissue) is 24.7 ng/mL; the time of peak concentration (Tmax) (usually the time from dosing to the highest level) was determined as 31.2 min. Moreover, in series [2], the AUC0-4 hr is 72.8 ng·h/mL, the AUC0-6 hr was 105.7 ng·h/mL, the Cmax is on record as 28.5 ng/mL and the time to peak (Tmax) turned out to be 120 min.

In the case of `CC(C)[C@H](NC(=O)c1cc[n+](COC(=O)N[C@@H](C)Cc2ccccc2)cc1)C(N)=O` [AMP-CO2CH2-isonicotinoyl-Val-NH2, d-amphetamine-CO2CH2-isonicotinoyl-valinamide], the “exposure to d-amphetamine after intravenous administration compared to the nicotinoyl analogue” value in series [1] (intravenous, compared to AMP-CO2CH2-nicotinoyl-Val-NH2, FIG. 32) was “decreases exposure to d-amphetamine”.

For the molecule “d-amphetamine-CO2CH2-isonicotinate ethyl ester [AMP-CO2CH2-isonicotinate(Et)]”, in series [1], the AUC0-2 hr stood at 26.5 ng·h/mL, the maximum concentration (Cmax) is reported as 18.8 ng/mL and the time of peak concentration (Tmax) worked out at 43.2 min. Further, in series [2], the AUC0-4 hr came out at 75.4 ng·h/mL, the AUC0-6 hr amounted to 106.6 ng·h/mL, the highest concentration (Cmax) worked out at 26.0 ng/mL and the Tmax was 90 min. Also, in series [3], the AUC0-1 hr was 8.6 ng·h/mL, the AUC0-4 hr was 32.6 ng·h/mL, the Cmax turned out to be 11.1 ng/mL and the Tmax was 37.8 min.
